{
  "source": "patent US20160256535A1",
  "about": "“HEXAPEPTIDE AND USES THEREOF” (priority 2013, published 2016)",
  "key": {"[1]": {"tested_on": "white blood cells", "assay": "White blood cell penetration, immunocytochemistry at light microscopy", "assay_type": "cell-based, human", "details": "healthy subject", "experimental": "(§1) Lymphocytes were incubated for five hours in the presence of fluorescinated Hexapeptide 92 μM. A cytospin was used to smear cells onto slides. The smears were fixed in Zamboni solution (4% paraformaldehyde, 15% picric acid) for 60 minutes and then washed with 1×PBS and incubated for five minutes with 3% hydrogen peroxide to quench endogenous peroxidase activity. Immunostaining was performed using the DAKO LSA+System HRP kit. Rabbit anti-rMnSOD-Lp (1:200), was incubated on slides for 30 minutes, followed by incubation with the biotinylated secondary antibody for 30 minutes and peroxidase-labeled streptavidin for 30 minutes. To complete the reaction, a substrate-chromogen solution was used. The smears were counterstained with hematoxylin."}, "[2]": {"tested_on": "MCF-7 cells", "assay": "Internalization of fluoresceinated hexapeptide by confocal and fluorescence microscopy", "assay_type": "cell-based, human", "details": "for internalization by confocal microscopy: 0.125 μM, 3 hr", "experimental": "The confocal analysis was performed by placing the cells of human breast cancer (MCF-7, ATCC HTB-22) on suitable slides (MatTek, Ashland Corporation MA, U.S.). The hexapaptide to the concentration of 0.125 μM was then added to the cells.\nThe protocol used for the internalization of the PEP-6 FAM includes two separate experiments. A first experiment was done using PEP 6-FAM to 92 μM for 3 hr and the internalization was assessed. To these cells, already treated with PEP6-FAM, primary Ab anti-PEP 24 1:20 overnight at 4° C. was added and, as secondary antibody goat anti rabbit fluorescent CF 488A; and to 1 plate, already treated with PEP6 FAM, it was added the primary antibody anti rMnSOD 1:20 overnight and the secondary CF555 rodamynated donkey anti sheep. For 45 min-1 hr.\nIn the second experiment, the PEP 6-FAM was used at 92 μM to 1 hr and 3 hr with fixation in ethanol and paraformaldehyde, and for both times it was assessed the penetration alone, without the addition of the antibody and with the addition of primary antibody anti rMnSOD with three different dilutions (1500-1:1000-1:2000) in 5% NGS (Normal Goat Serum) in PBS +0.1% Triton overnight at 4° C. and, the secondary antibody anti rhodium CF 555 sheep 1:400 for 45′-1 hr. The nuclei were subsequently stained with 10 μg for ml^−1 DAPI (4′,6-diamidin-2-phenylindole, LIFE™ Thencologies)."}, "[3]": {"tested_on": "Jurkat cells", "assay": "Jurkat cell penetration, immunofluorescence", "assay_type": "cell-based, human", "details": "92 μM, 3 h", "experimental": "Jurkat cells (ATTC, UK) were seeded at density of 150000 cells/well in RPMI media supplemented with 1% Penstrep and 10% FBS in a humidified atmosphere containing 5% CO2 at 37°. The next day, the cells were incubated with 92 μM AVCGTG (SEQ ID NO. 1)-FITC for 3 h in multiwell 24. Subsequently, a cytospin was used to smear cells onto slides. The smears were fixed with 4% paraformaldehyde/PBS for 10 min and rinsed twice with 1×PBS containing 0.1% Triton to remove traces of fixative. Cell samples without AVCGTG (SEQ ID NO. 1)-FITC were used for the background control. After blocking solution with 5% NGS (Normal Goat Serum, VECTOR) 1×PBS+0,1% Triton X-100, was added for 30 minutes. After removing the blocking solution, cells were incubated with primary antibody hexapeptide, diluted 1:200 in blocking solution, overnight at 4° C. The following day, after washing with lx PBS and 0.1% Triton X-100 for 10 minutes, secondary antibody (ALEXA FLUO 488A, SANTACRUZ) diluted 1:400 with 1×PBS and 0.1% Triton X-100 for 2 h was added. The excess of antibody was removed with 3 washes with 1×PBS.\nNuclei were stained with DAPI (1 μg/mL). The slides were mounted and stored in the dark at 4° C. and then observed by fluorescence microscope ZEISS HB050 by using the software Axion Vision Re1.4.8."}, "[4]": {"tested_on": "Human Normal Lymphocytes", "assay": "Lymphocyte penetration, immunocytochemistry / immunofluorescence", "assay_type": "cell-based", "experimental": "Human Normal Lymphocytes cells were collected from healthy donors and purified using Ficoll Hystopaque density gradient centrifugation. The cells were cultured at a density of 1×10^6 cells/mL in RPMI media supplemented with 1% Penstrep and 10% FBS in a humidified atmosphere containing 5% CO2 at 37° C.\nas §1, with “A” for “Lymphocytes were incubated for five hours in the presence of fluorescinated Hexapeptide 92 μM. A”"}, "[5]": {"tested_on": "cells", "assay": "Ability of hexapeptide conjugated to fluorescein to enter cells (immunocytochemistry)", "assay_type": "cell-based", "details": "immunocytochemistry examination", "excerpt": "The test results are positive and confirms the previous data."}, "[6]": {"tested_on": "sperm", "assay": "Sperm fluorescence microscopy with propidium iodide", "assay_type": "cell-based, bovine", "details": "1 mg/ml, 37° C., 1 hour; sperm without red (propidium iodide) fluorescence", "experimental": "Three fresh ejaculate from bovine, obtained from two different bulls, were mixed and diluted in Tris solution with a concentration of 100×10^6 sperm/ml, incubated at 37° C. for 1 hour in the presence of 1 mg/ml of FITC-rMnSOD-LP (hexapeptide) and 1 mg/ml of propidium iodide.\nThe peptide also enters in the sperm with a non-intact membrane. These sperm must not to be taken into consideration in the penetration study because if the membrane is broken, its permeability is not selective. The hexapeptide enters even in the dead, but for normal diffusion, not for selective activity of intact membranes."}},
  "note": "Primed or numbered codes have the meaning given here. No end group written: not given here. FITC′ = not defined here",
  "data": [
    {"substance": "AVCGTG (SEQ ID NO. 1)-FITC (AVCGTG-{FITC′})", "values": [
      {"measurement": "penetration into white blood cells", "setting": "[1]", "value": "penetrates in white blood cells"},
      {"measurement": "penetration by fluorescence optical microscopy", "setting": "[2]", "value": "penetrates into the MCF-7 breast cancer cells"},
      {"measurement": "internalization by confocal microscopy", "setting": "[2]; listed as FITC-PEP", "value": "internalized into the cytoplasm"},
      {"measurement": "internalization by confocal microscopy", "setting": "[2]; listed as FTC-peptide", "value": "internalized in the cytoplasm"},
      {"measurement": "penetration into Jurkat cells", "setting": "[3]", "value": "penetrates in Jurkat cells"},
      {"measurement": "internalization in lymphocytes", "setting": "[4]; 3 hour incubation", "value": "most cells internalized"},
      {"measurement": "percentage of labeled cells", "setting": "[4]; lymphocytes, 92 μM, 3 hours", "value": 95, "unit": "%"},
      {"measurement": "penetration into the cells", "setting": "[5]", "value": "penetrates into the cells"},
      {"measurement": "viable sperm showing green fluorescence in the mid piece of the tail", "setting": "[6]", "value": 100, "unit": "%"}
    ]}
  ]
}
